Earlier results, collected in US20160271085A1 (priority 2015, published 2016).

What was measured:
[1] = oral, ingested
[2] = system: injured sciatic nerves; conditions: addition of lactate; response did not occur in an atmosphere of nitrogen
[3] = system: amyotrophic lateral sclerosis; conditions: ALS

In the case of `CC(O)C(=O)[O-].[Na+]` (stereo not drawn) [sodium lactate, Sodium lactate], the serum lactate levels [1] is given as “significantly elevate serum lactate levels”.

For `CC(O)C(=O)O` (stereo not drawn) [lactate], the sustained muscle contraction [2] is listed as “enhanced”.

In the case of `Nc1nc2ccc(OC(F)(F)F)cc2s1` [Riluzole], the “progress of the disease” value [3] is listed as “appears to slow the progress of the disease”.
